Columns and labels:
[1] = molecular target: T1, NS5B proteins of HCV genotype 1b (Con1) (Hepatitis C virus genotype 1b, UniProt Q9WMX2); assay: HCV NS5B RdRp enzyme assay; assay type: biochemical; conditions: 1b enzyme
T1 construct: Each untagged protein was expressed with an 18 amino acid C-terminal truncation to enhance the solubility; made in house; host or cells: E. coli BL21(DE3), pET21a
Description: HCVNS5B RdRp Cloning, Expression, and Purification.
The cDNA encoding NS5B proteins of HCV genotype 1b (Con1), a genotype 1b variant with amino acid 316 mutated from cysteine to asparagine, and genotype 2a (JFH-1), were cloned into the pET21a expression vector. Each untagged protein was expressed with an 18 amino acid C-terminal truncation to enhance the solubility. The E. coli competent cell line BL21(DE3) was used for expression of the protein. Cultures were grown at 37° C. for ˜4 hours until the cultures reached an optical density of 2.0 at 600 nm. The cultures were cooled to 20° C. and induced with 1 mM IPTG. Fresh ampicillin was added to a final concentration of 50 μg/mL and the cells were grown overnight at 20° C.
Cell pellets (3 L) were lysed for purification to yield 15-24 mgs of purified NS5B. The lysis buffer consisted of 20 mM Tris-HCl, pH 7.4, 500 mM NaCl, 0.5% triton X-100, 1 mM DTT, 1 mM EDTA, 20% glycerol, 0.5 mg/mL lysozyme, 10 mM MgCl2, 15 ug/mL deoxyribonuclease I, and Complete TM protease inhibitor tablets (Roche). After addition of the lysis buffer, frozen cell pellets were resuspended using a tissue homogenizer. To reduce the viscosity of the sample, aliquots of the lysate were sonicated on ice using a microtip attached to a Branson sonicator. The sonicated lysate was centrifuged at 100,000×g for 30 minutes at 4° C. and filtered through a 0.2 μm filter unit (Corning).
The protein was purified using two sequential chromatography steps: Heparin sepharose CL-6B and polyU sepharose 4B. The chromatography buffers were identical to the lysis buffer but contained no lysozyme, deoxyribonuclease I, MgCl2 or protease inhibitor and the NaCl concentration of the buffer was adjusted according to the requirements for charging the protein onto the column. Each column was eluted with a NaCl gradient which varied in length from 5-50 column volumes depending on the column type. After the final chromatography step, the resulting purity of the enzyme is >90% based on SDS-PAGE analysis. The enzyme was aliquoted and stored at −80° C.
HCVNS5B RdRp Enzyme Assay.
An on-bead solid phase homogeneous assay was used in a 384-well format to assess NS5B inhibitors (WangY-K, Rigat K, Roberts S, and Gao M (2006) Anal Biochem, 359: 106-111). The biotinylated oligo dT12 primer was captured on streptavidin-coupled imaging beads (GE, RPNQ0261) by mixing primer and beads in 1× buffer and incubating at room temperature for three hours. Unbound primer was removed after centrifugation. The primer-bound beads were resuspended in 3× reaction mix (20 mM Hepes buffer, pH 7.5, dT primer coupled beads, poly A template, ^3H-UTP, and RNAse inhibitor (Promega N2515)). Compounds were serially diluted 1:3 in DMSO and aliquoted into assay plates. Equal volumes (10 μL) of water, 3× reaction mix, and enzyme in 3× assay buffer (60 mM Hepes buffer, pH 7.5, 7.5 mM MgCl2, 7.5 mM KCl, 3 mM DTT, 0.03 mg/mL BSA, 6% glycerol) were added to the diluted compound on the assay plate. Final concentration of components in 384-well assay: 0.36 nM template, 15 nM primer, 0.29 μM ^3H-UTP (0.3 μCi), 1.6 U/μL RNAse inhibitor, 7 nM NS5B enzyme, 0.01 mg/mL BSA, 1 mM DTT, and 0.33 μg/μL beads, 20 mM Hepes buffer, pH 7.5, 2.5 mM MgCl2, 2.5 mM KCl, and 0.1% DMSO.
Reactions were allowed to proceed from 4 to 24 hours at 30° C. For 24 hour reactions, enzyme and inhibitors were pre-incubated for 24 hours before adding template and primer. Reactions were terminated by the addition of 50 mM EDTA (10 μL). After incubating for at least 15 minutes, plates were read on an Amersham LEADseeker multimodality imaging system.
IC50 values for compounds were determined using ten different [I]. IC50 values were calculated from the inhibition using the four-parameter logistic formula y=A+((B−A)/(1+((C/x)^D))), where A and B denote minimal and maximal % inhibition, respectively, C is the IC50, D is hill slope and x represents compound concentration.

[2] = test system: genotype 1b (Con-1) HCV replicon in Huh-7 cells; assay: HCV replicon luciferase assay; assay type: cell-based; conditions: 1b replicon, Huh-7, Renilla luciferase, 3 days incubation
Method in brief: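 Huh-7 cells carrying Con-1 genotype 1b replicon with Renilla luciferase reporter seeded onto titrated compound in DMEM, 4% FBS, 0.5% DMSO, 3 days at 37 °C. Luciferase read with EnduRen substrate (7.5 μM final) after ≥1 h; EC50 by four-parameter logistic fit.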

T1 sequence (Q9WMX2 2420-2992): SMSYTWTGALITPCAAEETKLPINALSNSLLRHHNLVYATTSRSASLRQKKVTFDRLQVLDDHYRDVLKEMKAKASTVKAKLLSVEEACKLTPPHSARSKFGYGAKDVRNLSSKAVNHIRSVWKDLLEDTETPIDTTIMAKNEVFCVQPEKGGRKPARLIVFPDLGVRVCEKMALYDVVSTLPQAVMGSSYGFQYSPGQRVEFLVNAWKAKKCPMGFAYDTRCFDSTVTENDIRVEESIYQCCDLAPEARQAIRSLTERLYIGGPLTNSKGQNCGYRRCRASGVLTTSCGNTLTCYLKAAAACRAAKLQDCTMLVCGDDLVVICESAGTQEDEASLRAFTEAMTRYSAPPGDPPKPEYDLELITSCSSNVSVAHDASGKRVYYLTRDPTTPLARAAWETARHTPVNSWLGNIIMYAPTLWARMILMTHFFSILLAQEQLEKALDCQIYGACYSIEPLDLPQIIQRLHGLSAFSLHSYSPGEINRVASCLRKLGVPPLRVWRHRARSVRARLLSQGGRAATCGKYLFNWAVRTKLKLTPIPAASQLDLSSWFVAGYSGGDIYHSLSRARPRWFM

SMILES	IC50 [1] [nM]	EC50 ([2]; Hepatitis C virus, Huh-7, 72 h) [nM]	EC50 [2] [nM]
CCCc1cc2oc(-c3ccc(F)cc3)c(C(=O)NC)c2cc1-c1ccc(OC)c(C(=O)NC2(c3ncccn3)CC(OC(F)(F)F)C2)c1 (single isomer, unassigned) [Example 51a, 2-(4-Fluorophenyl)-5-(4-methoxy-3-((1-(pyrimidin-2-yl)-3-(trifluoromethoxy)cyclobutyl)carbamoyl)phenyl)-N-methyl-6-propylbenzofuran-3-carboxamide]	50	20	–
CCCc1cc2oc(-c3ccc(F)cc3)c(C(=O)NC)c2cc1-c1ccc(OC)c(C(=O)NC2(c3ncccn3)CC(OC(F)(F)F)C2)c1 (single isomer, unassigned) [Example 51b, 2-(4-Fluorophenyl)-5-(4-methoxy-3-((1-(pyrimidin-2-yl)-3-(trifluoromethoxy)cyclobutyl)carbamoyl)phenyl)-N-methyl-6-propylbenzofuran-3-carboxamide]	20	–	10
CCCc1cc2oc(-c3ccc(F)cc3)c(C(=O)NC)c2cc1-c1cc(C(=O)NC2(C)CC(OC(F)F)C2)c(OC)cc1C (single isomer, unassigned) [Example 57a, 5-(5-((3-(Difluoromethoxy)-1-methylcyclobutyl)carbamoyl)-4-methoxy-2-methylphenyl)-2-(4-fluorophenyl)-N-methyl-6-propylbenzofuran-3-carboxamide]	10	50	–
CNC(=O)c1c(-c2ccc(F)cc2)oc2cc(CCC(F)(F)F)c(-c3cccc(C(=O)NC4(C)CC(OC(F)F)C4)c3)cc12 (single isomer, unassigned) [Example 59b, 5-(3-((3-(Difluoromethoxy)-1-methylcyclobutyl)carbamoyl)phenyl)-2-(4-fluorophenyl)-N-methyl-6-(3,3,3-trifluoropropyl)benzofuran-3-carboxamide]	10	–	20
CNC(=O)c1c(-c2ccc(F)cc2)oc2cc(CCC(F)(F)F)c(-c3ccc(F)c(C(=O)NC4(C)CC(OC(F)F)C4)c3)cc12 (single isomer, unassigned) [Example 63b, 5-(3-((3-(Difluoromethoxy)-1-methylcyclobutyl)carbamoyl)-4-fluorophenyl)-2-(4-fluorophenyl)-N-methyl-6-(3,3,3-trifluoropropyl)benzofuran-3-carboxamide]	3.03	–	10
CNC(=O)c1c(-c2ccc(F)cc2)oc2cc(NCC(F)(F)F)c(-c3ccc(OC)c(C(=O)NC4(c5ncccn5)CC(OC(F)F)C4)c3)cc12 (single isomer, unassigned) [Example 64a]	3.3	4.23	–
CNC(=O)c1c(-c2ccc(F)cc2)oc2cc(NCC(F)(F)F)c(-c3ccc(OC)c(C(=O)NC4(c5ncccn5)CC(OC(F)F)C4)c3)cc12 (single isomer, unassigned) [Example 64b]	3.97	–	5.97
CNC(=O)c1c(-c2ccc(F)cc2)oc2cc(NCC(F)(F)F)c(-c3cccc(C(=O)NC4(c5ncccn5)CC(OC(F)F)C4)c3)cc12 (single isomer, unassigned) [Example 65a]	4.55	–	8.72
CNC(=O)c1c(-c2ccc(F)cc2)oc2cc(NCC(F)(F)F)c(-c3cccc(C(=O)NC4(c5ncccn5)CC(OC(F)F)C4)c3)cc12 (single isomer, unassigned) [Example 65b]	4.73	–	4.23
CCOc1cc2oc(-c3ccc(F)cc3)c(C(=O)NC)c2cc1-c1ccc(OC)c(C(=O)NC2(c3ncccn3)CC(OC(F)F)C2)c1 (single isomer, unassigned) [Example 66a, 5-(3-((3-(Difluoromethoxy)-1-(pyrimidin-2-yl)cyclobutyl)carbamoyl)-4-methoxyphenyl)-6-ethoxy-2-(4-fluorophenyl)-N-methylbenzofuran-3-carboxamide]	1.91	4.05	–
CCOc1cc2oc(-c3ccc(F)cc3)c(C(=O)NC)c2cc1-c1ccc(OC)c(C(=O)NC2(c3ncccn3)CC(OC(F)F)C2)c1 (single isomer, unassigned) [Example 66b, 5-(3-((3-(Difluoromethoxy)-1-(pyrimidin-2-yl)cyclobutyl)carbamoyl)-4-methoxyphenyl)-6-ethoxy-2-(4-fluorophenyl)-N-methylbenzofuran-3-carboxamide]	2.02	–	4.39
CCOc1cc2oc(-c3ccc(F)cc3)c(C(=O)NC)c2cc1-c1cccc(C(=O)NC2(c3ncccn3)CC(OC(F)F)C2)c1 (single isomer, unassigned) [Example 67b, 5-(3-((3-(Difluoromethoxy)-1-(pyrimidin-2-yl)cyclobutyl)carbamoyl)phenyl)-6-ethoxy-2-(4-fluorophenyl)-N-methylbenzofuran-3-carboxamide]	2.11	–	6.8
CNC(=O)c1c(-c2ccc(F)cc2)oc2ccc(-c3cc(C(=O)NC4(c5ncccn5)CC(=O)C4)ccc3C)c(F)c12 [Example 6, 4-Fluoro-2-(4-fluorophenyl)-N-methyl-5-(2-methyl-5-((3-oxo-1-(pyrimidin-2-yl)cyclobutyl)carbamoyl)phenyl)benzofuran-3-carboxamide]	10	20	–
CNC(=O)c1c(-c2ccc(F)cc2)oc2ccc(-c3cc(C(=O)NC4(c5ncccn5)CC(OC)(OC)C4)ccc3C)c(F)c12 [Example 7, 5-(5-((3,3-Dimethoxy-1-(pyrimidin-2-yl)cyclobutyl)carbamoyl)-2-methylphenyl)-4-fluoro-2-(4-fluorophenyl)-N-methylbenzofuran-3-carboxamide]	10	60	–
CNC(=O)c1c(-c2ccc(F)cc2)oc2ccc(-c3cc(C(=O)NC4(c5ncccn5)CC(OC)(OC)C4)cc(F)c3C)c(F)c12 [Example 8, 5-(5-(3,3-Dimethoxy-1-(pyrimidin-2-yl)cyclobutylcarbamoyl)-3-fluoro-2-methylphenyl)-4-fluoro-2-(4-fluorophenyl)-N-methylbenzofuran-3-carboxamide]	40	20	–
CNC(=O)c1c(-c2ccc(F)cc2)oc2ccc(-c3cc(C(=O)NC4(c5ncccn5)CC(OC)(OC)C4)c(OC)cc3C)c(F)c12 [Example 14, 5-(5-((3,3-Dimethoxy-1-(pyrimidin-2-yl)cyclobutyl)carbamoyl)-4-methoxy-2-methylphenyl)-4-fluoro-2-(4-fluorophenyl)-N-methylbenzofuran-3-carboxamide]	30	20	–
CNC(=O)c1c(-c2ccc(F)cc2)oc2ccc(-c3cc(C(=O)NC4(c5ncccn5)CC(F)(F)C4)ccc3C)c(F)c12 [Example 15, 5-(5-((3,3-Difluoro-1-(pyrimidin-2-yl)cyclobutyl)carbamoyl)-2-methylphenyl)-4-fluoro-2-(4-fluorophenyl)-N-methylbenzofuran-3-carboxamide]	30	30	–
